We go through 1 compound from ChEMBL document CHEMBL5550180, “Enhancing anti-cancer capacity: Novel class I/II HDAC inhibitors modulate EMT, cell cycle, and apoptosis pathways” (Bioorg Med Chem, 2024).

This data set is described as follows: Toxicity in zebrafish embryo at […] measured after 96 hrs post fertilization. The settings on record: in vivo. On the set-up: species or system Danio rerio.

Structures are written as SMILES.

Consider `NC(=O)NO` [HYDROXYUREA], for which the Activity entry is “Toxic”.
